# According to patent publication US20230144898A1, “INHIBITOR OF ASPARTIC ACID SYNTHESIS IN TUMOR CELLS, INHIBITOR OF SPHEROID FORMATION OF TUMOR CELLS, INHIBITOR OF TUMOR CELL METASTASIS, ACTIVITY ENHANCER OF GLYCOLYTIC INHIBITOR, AND PHARMACEUTICAL COMPOSITION FOR SUPPRESSING AND/OR PREVENTING TUMOR METASTASIS” (CCI HOLDINGS INC., priority 2020, published 2023):
# “And” between values parts separate entries of the source, which are not always exact repeats. Equal entries are not always repeated. “Also recorded” adds a separate entry of the source. Where two headings read alike, the source gives them in different places.
# Key:
# [1] = tested on: CMeCl cells (canine malignant melanoma cells); experiment: Proliferation inhibition, CMeC1 cells, trypan blue viable cell count (Test Example 1); format: cell-based; details: for IC50: Cell line: CMeC1, incubated for 72 hours
# Protocol: Four compounds of petasin, S-petasin, neopetasin and neo-S-petasin were evaluated for the inhibitory effect on proliferation of mouse or canine malignant melanoma cells by the following method.
# B16F10 cells (mouse malignant melanoma cells) were obtained from JCRB Cell Bank (National Institutes of Biomedical Innovation, Health and Nutrition). In addition, CMeCl cells (canine malignant melanoma cells) were obtained from Veterinary Surgery Laboratory, Graduate School of Agricultural and Life Sciences, the University of Tokyo. Furthermore, A2058 cells (human malignant melanoma cells) were obtained from JCRB Cell Bank (National Institutes of Biomedical Innovation, Health and Nutrition). B16F10 cells were cultured in a 37° C. incubator (air/CO2 = 95/5 (v/v)) using Dulbecco’s modified Eagle’s medium (DMEM), CMeCl cells in RPMI (Roswell Park Memorial Institute) medium (RPMI1640), and A2058 cells in E-MEM medium.
# (§1) First, CMeCl cells (canine malignant melanoma cells) were seeded in a six-well plate so as to be 0.5×10^5 cells/mL, and after 24 hours therefrom, each of the above four kinds of compounds (final concentration: 0.01 to 100 µg/mL) was suspended in the medium at a ratio of 0.1% and incubated for 72 hours. 72 hours after the start of culture, the number of viable cells was measured by trypan blue staining. At this time, viable cells (cell viability%) were calculated as the relative number of cells when the number of viable cells in a negative control section (DMSO treatment) was taken as 100%. Then, IC50 was calculated using a GraphPad Prism software system (GraphPad Software Inc.).
# [2] = tested on: B16F10 cells (mouse malignant melanoma cells); experiment: Proliferation inhibition, B16F10 cells (Test Example 1); format: cell-based; details: B16-F10, read-out: IC50, proliferation inhibitory activity on B16F10 cells
# [3] = tested on: ASF4-1 cells (normal human skin-derived fibroblasts); experiment: Proliferation inhibition, normal fibroblasts compared with tumor cells (Test Example 1); format: cell-based
# Protocol: as §1
# Furthermore, the results of the same test as described above using ASF4-1 cells, which are normal human skin-derived fibroblasts, and A2058 cells, which are human malignant melanoma cells, are shown in FIG. 1C in comparison with the case of using B16F10 cells.
# B16F10 cells [4] = experiment: Mouse malignant melanoma lung metastasis model (Test Example 2); format: in vivo; details: 50 mg/kg intraperitoneally once every two days, 5 times; after 10 days
# Protocol: Using the mouse malignant melanoma lung metastasis model, the metastasis inhibitory effect of neopetasin on tumor cells was examined. Specifically, C57BL/6 mice (6 weeks old, female) were purchased from Japan SLC (Hamamatsu). Then, the B16F10 cells were intravenously administered from tail vein in an amount of 0.25×10^6 cells/100 µL PBS. Then, from the day when the cells were seeded, neopetasin (50 mg/kg) was intraperitoneally administered once every two days (5 times in total). After 10 days from the start of administration, the lungs were dissected and extracted, and the number of metastasis lesions observed on the lung surface was counted. In addition, the P value was calculated using Student’s T-test using the GraphPad Prism software system (GraphPad software Inc) .
# [5] = Microscopic observation of organ tissue sections of model mice (Test Example 2); format: in vivo; details: heart, normal site of lung, cerebrum, kidney, liver, spleen, 50 mg/kg i.p.
# Protocol: Furthermore, when the model mouse to which neopetasin or corn oil was administered was dissected in the above, sections were prepared from the tissues of each organ (heart, normal site of lung, cerebrum, kidney, liver, spleen) and were observed using a microscope. […] The results are consistent with specificity of the action of neopetasin on tumor cells in vitro as described above in Test
# B16F10 cells [6] = experiment: Influence on anticancer action of 2-DG, cell viability (Test Example 3); format: cell-based, mouse; details: neopetasin 0.3 µM or 3 µM with 2-DG, 36 hours
# Protocol: Specifically, to start with, B16F10 cells were seeded in a six-well plate in an amount of 0.5×10^5 cells/mL. Next, after 24 hours starting from seeding, 2-DG (concentration changed from 3 mM to 3 nM) was added and simultaneously treated with neopetasin at a concentration of 0.3 µM or 3 µM. Then, after 36 hours starting from this treatment, the cell viability was measured through the same method as in Test Example 1. Moreover, as a negative control section, DMSO was administered to perform the same experiment.
# B16F10 cells [7] = experiment: Scratch wound healing assay (Test Example 5); format: cell-based, mouse; details: 0.3 µM, 72 hours
# Protocol: Specifically, to start with, B16F10 cells were seeded in a six-well plate in an amount of 1.0×10^5 cells/mL. After 24 hours starting from seeding, scratches were then made using 200 µL chips. Thereafter, the medium was changed to a neopetasin-containing one (concentration: 0.3 µM), the cells were further cultured for 72 hours, and the cells were photographed. In addition, as a negative control section, the same experiment was performed by replacing the medium with the same medium not containing neopetasin.
# [8] = tested on: mitochondria in B16F10 cells; experiment: MitoTracker Orange staining of mitochondria (Test Example 8); format: cell-based, mouse
# Protocol: In order to determine the action mechanism of neopetasin on inhibiting the aspartic acid synthesis in tumor cells, the influence of neopetasin on mitochondria in B16F10 cells was evaluated. Specifically, B16F10 cells treated with neopetasin (3 µM) for 48 hours through the same method as in Test Example 1 were stained using MitoTracker Orange (Thermo Fisher Scientific, MA, USA), which labels mitochondria depending on membrane potential. In addition, as a positive control section, in place of neopetasin, metformin known as a mitochondrial respiratory chain Complex I inhibitor (mitochondrial toxin) was used at a concentration of 5000 µM to perform the same experiment. Subsequently, the cells stained as described above were photographed with a fluorescence microscope (FIG. 9A). In addition, the relationship between fluorescence intensity of the cells and the distribution of the number of cells was measured using an image cytometer (Tali, Thermo Fisher Scientific, MA, USA) (FIG. 9B).
# A2058 cells = experiment: Western blotting of cancer-related proteins, A2058 cells (Test Example 10); format: cell-based, human; details: 3 µM, 56 hours
# [9] = Cell proliferation inhibition assay (Test Example 14); format: cell-based; details: compared with petasin, S-petasin and S-neopetasin
# Protocol: In this test example, IC50 values in the cell proliferation inhibition assay for petasin, neopetasin, S-petasin and S-neopetasin were measured in addition to the Petasites japonicus extract (whole extract).
smiles,measurement,setting,value
"C=C(C)[C@H]1C[C@@]2(C)C(=CC1=O)CC[C@@H](OC(=O)/C(C)=C\C)[C@@H]2C [Neopetasin, neopetasin]",inhibitory effect on proliferation of CMeCl cells,[1]; 72 hours,showed the strongest activity
same,IC50,"[1]; Canis lupus familiaris, 72 h, read-out: IC50",990 nM
same,IC50,"[1]; Canis lupus familiaris, 72 h, read-out: IC50 (µg/mL)",0.314 µg/mL
same,IC50,[1]; read-out: IC50,991 nM
same,IC50,[2],493 nM and 0.156 µg/mL
same,inhibitory effect on proliferation of / cytotoxicity to normal cells,[3]; ASF4-1 cells,hardly exhibits the inhibitory effect on proliferation of normal cells; also recorded: shows no cytotoxicity
same,IC50 for ASF4-1 cells (normal cells) relative to IC50 for tumor cells,[3]; versus A2058 cells and B16F10 cells,≥ 1000 fold
same,lung metastasis (number of metastasis lesions on the lung surface),B16F10 cells [4],extremely potently suppressed lung metastasis; also recorded: inhibited lung metastasis
same,histological and morphological changes / toxicity in organs,[5],"no histological and morphological changes; also recorded: showed little toxicity to the liver, kidney, spleen"
same,anticancer action of 2-DG on addition of neopetasin,B16F10 cells [6],enhanced in a concentration-dependent manner
same,migration of tumor cells to the scratch portion,B16F10 cells [7],suppressed
same,activity relative to metformin,[8]; neopetasin 3 µM vs metformin 5000 µM,≥ 1000 times
same,MitoTracker Orange fluorescence intensity,"[8]; neopetasin 3 µM, metformin 5000 µM, 48 hours",enhanced fluorescence intensity
same,expression of cancer-related molecules,A2058 cells,inhibit a wide range of cancer-related molecules
same,cell proliferation inhibition activity (IC50 comparison),[9],superior cell proliferation inhibition activity to the other three compounds
